# PubChem BioAssay (NCI)
#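 Briefly, cells in 96-well plates were exposed to five compound concentrations for 48 h, and endpoints were estimated by linear interpolation. Here, GI50 denotes the concentration required for 50% inhibition of growth. The concentration for full growth arrest is given as TGI.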
# How the values were obtained:
# Assay in all cases: inhibition of tumour cell growth, NCI panel, 48 h
# CAKI-1 renal = system: CAKI-1 renal
# NCI-H460 lung = system: NCI-H460 lung
# MDA-MB-231 breast = system: MDA-MB-231 breast
# RXF 393 renal = system: RXF 393 renal
# HS 578T breast = system: HS 578T breast
# SK-OV-3 ovarian = system: SK-OV-3 ovarian
# HOP-92 NSCLC = system: HOP-92 NSCLC
# MCF7 breast = system: MCF7 breast
# UACC-62 melanoma = system: UACC-62 melanoma
# SR leukemia = system: SR leukemia
# SW-620 colon = system: SW-620 colon
# U251 CNS = system: U251 CNS
# SK-MEL-2 melanoma = system: SK-MEL-2 melanoma
# MALME-3M melanoma = system: MALME-3M melanoma
# SF-539 CNS = system: SF-539 CNS
# BT-549 breast = system: BT-549 breast
# SK-MEL-28 melanoma = system: SK-MEL-28 melanoma
# HOP-62 NSCLC = system: HOP-62 NSCLC
# IGROV1 ovarian = system: IGROV1 ovarian
# HCT-15 colon = system: HCT-15 colon
# 786-0 renal = system: 786-0 renal
# KM12 colon = system: KM12 colon
# SF-295 CNS = system: SF-295 CNS
# NCI-H522 lung = system: NCI-H522 lung
# HL-60(TB) leukemia = system: HL-60(TB) leukemia
# OVCAR-3 ovarian = system: OVCAR-3 ovarian
# M14 melanoma = system: M14 melanoma
# T-47D breast = system: T-47D breast
# UACC-257 melanoma = system: UACC-257 melanoma
# OVCAR-4 ovarian = system: OVCAR-4 ovarian
# OVCAR-8 ovarian = system: OVCAR-8 ovarian
# PC-3 prostate = system: PC-3 prostate
# EKVX NSCLC = system: EKVX NSCLC
# NCI-H226 lung = system: NCI-H226 lung
# K-562 leukemia = system: K-562 leukemia
# OVCAR-5 ovarian = system: OVCAR-5 ovarian
# HCT-116 colon = system: HCT-116 colon
# NCI-H23 lung = system: NCI-H23 lung
# NCI/ADR-RES ovarian = system: NCI/ADR-RES ovarian
# CCRF-CEM leukemia = system: CCRF-CEM leukemia
# COLO 205 colon = system: COLO 205 colon
# LOX IMVI melanoma = system: LOX IMVI melanoma
# MDA-MB-435 = system: MDA-MB-435
# MOLT-4 leukemia = system: MOLT-4 leukemia
# HT29 colon = system: HT29 colon
# SNB-19 CNS = system: SNB-19 CNS
# TK-10 renal = system: TK-10 renal
# DU-145 prostate = system: DU-145 prostate
# UO-31 renal = system: UO-31 renal
# RPMI-8226 leukemia = system: RPMI-8226 leukemia
# ACHN renal = system: ACHN renal
# SK-MEL-5 melanoma = system: SK-MEL-5 melanoma
# A549 NSCLC = system: A549 NSCLC
# SNB-75 CNS = system: SNB-75 CNS
# SF-268 CNS = system: SF-268 CNS
compound,measurement,setting,value
O=C1c2cccnc2C(=O)c2c1c(C(=O)OCCCN1CCCCC1)c1ccccn21,GI50,CAKI-1 renal,< 10 nM
same,TGI,CAKI-1 renal,105 nM
same,GI50,NCI-H460 lung,< 10 nM
same,TGI,NCI-H460 lung,12.2 nM
same,GI50,MDA-MB-231 breast,717 nM
same,TGI,MDA-MB-231 breast,13900 nM
same,GI50,RXF 393 renal,< 10.8 nM
same,TGI,RXF 393 renal,< 19 nM
same,GI50,HS 578T breast,< 17.8 nM
same,TGI,HS 578T breast,132 nM
same,GI50,SK-OV-3 ovarian,< 10 nM
same,TGI,SK-OV-3 ovarian,< 19.9 nM
same,GI50,HOP-92 NSCLC,51.2 nM
same,TGI,HOP-92 NSCLC,913 nM
same,GI50,MCF7 breast,< 10 nM
same,TGI,MCF7 breast,< 15 nM
same,GI50,UACC-62 melanoma,< 10 nM
same,TGI,UACC-62 melanoma,47.8 nM
same,GI50,SR leukemia,< 10 nM
same,TGI,SR leukemia,> 100000 nM
same,GI50,SW-620 colon,< 10 nM
same,TGI,SW-620 colon,< 19.2 nM
same,GI50,U251 CNS,< 10 nM
same,TGI,U251 CNS,37.2 nM
same,GI50,SK-MEL-2 melanoma,30.3 nM
same,TGI,SK-MEL-2 melanoma,80.8 nM
same,GI50,MALME-3M melanoma,< 15.8 nM
same,TGI,MALME-3M melanoma,68.2 nM
same,GI50,SF-539 CNS,< 10.6 nM
same,TGI,SF-539 CNS,43.5 nM
same,GI50,BT-549 breast,108 nM
same,TGI,BT-549 breast,2780 nM
same,GI50,SK-MEL-28 melanoma,34 nM
same,TGI,SK-MEL-28 melanoma,3740 nM
same,GI50,HOP-62 NSCLC,< 10 nM
same,TGI,HOP-62 NSCLC,20.3 nM
same,GI50,IGROV1 ovarian,30.9 nM
same,TGI,IGROV1 ovarian,686 nM
same,GI50,HCT-15 colon,10 nM
same,TGI,HCT-15 colon,422 nM
same,GI50,786-0 renal,< 10 nM
same,TGI,786-0 renal,< 10 nM
same,GI50,KM12 colon,< 18.5 nM
same,TGI,KM12 colon,165 nM
same,GI50,SF-295 CNS,10 nM
same,TGI,SF-295 CNS,38.3 nM
same,GI50,NCI-H522 lung,< 10 nM
same,TGI,NCI-H522 lung,< 15.6 nM
same,GI50,HL-60(TB) leukemia,122 nM
same,TGI,HL-60(TB) leukemia,7500 nM
same,GI50,OVCAR-3 ovarian,< 21.8 nM
same,TGI,OVCAR-3 ovarian,156 nM
same,GI50,M14 melanoma,< 10 nM
same,TGI,M14 melanoma,38.4 nM
same,GI50,T-47D breast,1100 nM
same,TGI,T-47D breast,21500 nM
same,GI50,UACC-257 melanoma,< 10 nM
same,TGI,UACC-257 melanoma,54.9 nM
same,GI50,OVCAR-4 ovarian,280 nM
same,TGI,OVCAR-4 ovarian,2000 nM
same,GI50,OVCAR-8 ovarian,10.2 nM
same,TGI,OVCAR-8 ovarian,1190 nM
same,GI50,PC-3 prostate,< 18.3 nM
same,TGI,PC-3 prostate,389 nM
same,GI50,EKVX NSCLC,35.1 nM
same,TGI,EKVX NSCLC,253 nM
same,GI50,NCI-H226 lung,< 10 nM
same,TGI,NCI-H226 lung,31.8 nM
same,GI50,K-562 leukemia,< 14.4 nM
same,GI50,OVCAR-5 ovarian,34.4 nM
same,TGI,OVCAR-5 ovarian,1830 nM
same,GI50,HCT-116 colon,< 10.6 nM
same,TGI,HCT-116 colon,275 nM
same,GI50,NCI-H23 lung,< 10 nM
same,TGI,NCI-H23 lung,26 nM
same,GI50,NCI/ADR-RES ovarian,< 10 nM
same,TGI,NCI/ADR-RES ovarian,225 nM
same,GI50,CCRF-CEM leukemia,70.6 nM
same,GI50,COLO 205 colon,< 12.8 nM
same,TGI,COLO 205 colon,30.3 nM
same,GI50,LOX IMVI melanoma,< 10 nM
same,TGI,LOX IMVI melanoma,< 10 nM
same,GI50,MDA-MB-435,14.2 nM
same,TGI,MDA-MB-435,41.7 nM
same,GI50,MOLT-4 leukemia,100 nM
same,TGI,MOLT-4 leukemia,> 36400 nM
same,GI50,HT29 colon,29.5 nM
same,TGI,HT29 colon,665 nM
same,GI50,SNB-19 CNS,< 10 nM
same,TGI,SNB-19 CNS,1830 nM
same,GI50,TK-10 renal,27.2 nM
same,TGI,TK-10 renal,4180 nM
same,GI50,DU-145 prostate,< 10 nM
same,TGI,DU-145 prostate,1290 nM
same,GI50,UO-31 renal,< 10 nM
same,TGI,UO-31 renal,< 10 nM
same,GI50,RPMI-8226 leukemia,60.9 nM
same,GI50,ACHN renal,< 10 nM
same,TGI,ACHN renal,17.1 nM
same,GI50,SK-MEL-5 melanoma,< 14.3 nM
same,TGI,SK-MEL-5 melanoma,46.6 nM
same,GI50,A549 NSCLC,< 10 nM
same,TGI,A549 NSCLC,< 18.2 nM
same,GI50,SNB-75 CNS,< 10 nM
same,TGI,SNB-75 CNS,< 18.7 nM
same,GI50,SF-268 CNS,< 10 nM
same,TGI,SF-268 CNS,207 nM
